# Counter-ions that a name gives are not always drawn. Like-named read-outs stand apart in the source and are kept apart here.
# Tests used:
# [1] = system: iCell endothelial cells (human iPSC-derived ECs); test: Tube formation (tubulogenesis) assay in iCell endothelial cells, 18 h; format: cell-based; conditions: Homo sapiens, Endothelial cell, iPSC-EC tube formation, 18 hr; for activity at 0.1 µM: 0.10 µM; for minimal effective concentration: top concentration 100.00 µM
# Procedure, shortened: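 iCell ECs (passages 1–5) seeded 7,500 cells/well on reduced-growth-factor Geltrex in starvation medium, exposed overnight at 37°C to compounds in triplicate concentration–response (0.5% DMSO vehicle). Calcein AM staining, 4× imaging, angiogenesis image analysis; readouts normalized to vehicle, four-parameter logistic fit, POD at 1 SD of vehicle; 100 μM assigned NOAEL if no response.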
# [2] = system: HUVECs; test: Tube formation (tubulogenesis) assay in HUVECs, 18 h; format: cell-based, human; conditions: Homo sapiens, HUVEC, 18 h, HUVECs; for activity at 0.1 µM: 0.10 µM; for minimal effective concentration: top concentration 100.00 µM
# Procedure, shortened: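 HUVECs (passage 1–5) seeded on reduced-growth-factor basement membrane and exposed to compounds overnight at 37°C, 5% CO2, in 2× maintenance medium with 12.5 ng/mL VEGF; 0.5% DMSO vehicle. Calcein AM-stained tube networks imaged and analysed; vehicle-normalized readouts fit to four-parameter logistic, POD set at one SD of vehicle means.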
# [3] = 0.00 µM control = 100.00, read-out: endo.mtl.18hr
# [4] = 0.00 µM control = 100.00, read-out: endo.tlps.18hr
# [5] = 0.00 µM control = 100.00, read-out: endo.tta.18hr
# [6] = 0.00 µM control = 100.00, read-out: endo.ttl.18hr
# [7] = 0.00 µM = 100.00, read-out: huvec.mtl.18hr
# [8] = 0.00 µM = 100.00, read-out: huvec.tlps.18hr
# [9] = 0.00 µM = 100.00, read-out: huvec.tta.18hr
# [10] = 0.00 µM = 100.00, read-out: huvec.ttl.18hr
smiles,measurement,setting,value
O=S(=O)(O)Oc1ccc(-c2cccc(Cl)c2)cc1Cl [4-yl PCB 11 sulfate],activity at 0.01 µM,[1]; [3],107%
same,activity at 0.01 µM,[1]; [4],113%
same,activity at 0.01 µM,[1]; [5],174%
same,activity at 0.01 µM,[1]; [6],179%
same,activity at 0.1 µM,[1]; [3],122%
same,activity at 0.1 µM,[1]; [4],98.8%
same,activity at 0.1 µM,[1]; [5],119%
same,activity at 0.1 µM,[1]; [6],124%
same,activity at 1 µM,[1]; [3],113%
same,activity at 1 µM,[1]; [4],103%
same,activity at 1 µM,[1]; [5],124%
same,activity at 1 µM,[1]; [6],128%
same,activity at 10 µM,[1]; [3],94.3%
same,activity at 10 µM,[1]; [4],82.5%
same,activity at 10 µM,[1]; [5],91.7%
same,activity at 10 µM,[1]; [6],93.7%
same,activity at 100 µM,[1]; [3],68.5%
same,activity at 100 µM,[1]; [4],27.8%
same,activity at 100 µM,[1]; [5],26.5%
same,activity at 100 µM,[1]; [6],25.6%
same,minimal effective concentration,[1]; read-out: endo.mtl.18hr POD,25.3 µM
same,minimal effective concentration,[1]; read-out: endo.tlps.18hr POD,12.7 µM
same,minimal effective concentration,[1]; read-out: endo.tta.18hr POD,21 µM
same,minimal effective concentration,[1]; read-out: endo.ttl.18hr POD,25.6 µM
same,activity at 0.01 µM,[2]; [7],96.8%
same,activity at 0.01 µM,[2]; [8],110%
same,activity at 0.01 µM,[2]; [9],98.3%
same,activity at 0.01 µM,[2]; [10],87.1%
same,activity at 0.1 µM,[2]; [7],112%
same,activity at 0.1 µM,[2]; [8],133%
same,activity at 0.1 µM,[2]; [9],109%
same,activity at 0.1 µM,[2]; [10],98.7%
same,activity at 1 µM,[2]; [7],108%
same,activity at 1 µM,[2]; [8],110%
same,activity at 1 µM,[2]; [9],123%
same,activity at 1 µM,[2]; [10],113%
same,activity at 10 µM,[2]; [7],95%
same,activity at 10 µM,[2]; [8],103%
same,activity at 10 µM,[2]; [9],84.6%
same,activity at 10 µM,[2]; [10],77%
same,activity at 100 µM,[2]; [7],52.2%
same,activity at 100 µM,[2]; [8],35.8%
same,activity at 100 µM,[2]; [9],50.9%
same,activity at 100 µM,[2]; [10],56.1%
same,minimal effective concentration,[2]; read-out: huvec.mtl.18hr POD,14.3 µM
same,minimal effective concentration,[2]; read-out: huvec.tlps.18hr POD,27.2 µM
same,minimal effective concentration,[2]; read-out: huvec.tta.18hr POD,100 µM
same,minimal effective concentration,[2]; read-out: huvec.ttl.18hr POD,100 µM
O=S(=O)(O)Oc1cc(Cl)c(-c2cc(Cl)ccc2Cl)cc1Cl [4-yl PCB 52 sulfate],activity at 0.01 µM,[1]; [3],116%
same,activity at 0.01 µM,[1]; [4],87.8%
same,activity at 0.01 µM,[1]; [5],122%
same,activity at 0.01 µM,[1]; [6],129%
same,activity at 0.1 µM,[1]; [3],108%
same,activity at 0.1 µM,[1]; [4],115%
same,activity at 0.1 µM,[1]; [5],115%
same,activity at 0.1 µM,[1]; [6],119%
same,activity at 1 µM,[1]; [3],109%
same,activity at 1 µM,[1]; [4],108%
same,activity at 1 µM,[1]; [5],112%
same,activity at 1 µM,[1]; [6],119%
same,activity at 10 µM,[1]; [3],73.9%
same,activity at 10 µM,[1]; [4],46.2%
same,activity at 10 µM,[1]; [5],70%
same,activity at 10 µM,[1]; [6],71.1%
same,activity at 100 µM,[1]; [3],46.8%
same,activity at 100 µM,[1]; [4],10.1%
same,activity at 100 µM,[1]; [5],0.18%
same,activity at 100 µM,[1]; [6],0.34%
same,minimal effective concentration,[1]; read-out: endo.mtl.18hr POD,7.44 µM
same,minimal effective concentration,[1]; read-out: endo.tlps.18hr POD,5.74 µM
same,minimal effective concentration,[1]; read-out: endo.tta.18hr POD,8.83 µM
same,minimal effective concentration,[1]; read-out: endo.ttl.18hr POD,9.64 µM
same,activity at 0.01 µM,[2]; [7],91.2%
same,activity at 0.01 µM,[2]; [8],86.7%
same,activity at 0.01 µM,[2]; [9],66.3%
same,activity at 0.01 µM,[2]; [10],59.7%
same,activity at 0.1 µM,[2]; [7],103%
same,activity at 0.1 µM,[2]; [8],108%
same,activity at 0.1 µM,[2]; [9],99.9%
same,activity at 0.1 µM,[2]; [10],89.7%
same,activity at 1 µM,[2]; [7],99%
same,activity at 1 µM,[2]; [8],111%
same,activity at 1 µM,[2]; [9],97.7%
same,activity at 1 µM,[2]; [10],87.2%
same,activity at 10 µM,[2]; [7],93.2%
same,activity at 10 µM,[2]; [8],84.7%
same,activity at 10 µM,[2]; [9],79.1%
same,activity at 10 µM,[2]; [10],70.9%
same,activity at 100 µM,[2]; [7],61.8%
same,activity at 100 µM,[2]; [8],26.3%
same,activity at 100 µM,[2]; [9],85.2%
same,activity at 100 µM,[2]; [10],94.3%
same,minimal effective concentration,[2]; read-out: huvec.mtl.18hr POD,14.6 µM
same,minimal effective concentration,[2]; read-out: huvec.tlps.18hr POD,10.1 µM
same,minimal effective concentration,[2]; read-out: huvec.tta.18hr POD,100 µM
same,minimal effective concentration,[2]; read-out: huvec.ttl.18hr POD,100 µM
